From patent US9284330B2 (priority 2011, dated 2016)
Like-named read-outs stand apart in the source and are kept apart here.

Columns and labels:
acetylcholinesterase = acetylcholinesterase (Electrophorus electricus (Electric eel) (Gymnotus electricus), UniProt O42275); test: biochemical
L-type Ca2+ channel [1] = test: Blocking of L-type Ca2+ channel by high content screening analyzer, KCl-induced calcium ion influx in SH-SY5Y cells (Fluo-4-AM)
L-type Ca2+ channel [2] = test: Blocking of L-type Ca2+ channel by patch clamp, calcium current in rat dorsal root ganglion cells; format: cell-based; details: whole cell patch clamp
[3] = test system: primary cortical neuron cells; details: 24 h incubation

Sequence of acetylcholinesterase (O42275 whole entry, looked up): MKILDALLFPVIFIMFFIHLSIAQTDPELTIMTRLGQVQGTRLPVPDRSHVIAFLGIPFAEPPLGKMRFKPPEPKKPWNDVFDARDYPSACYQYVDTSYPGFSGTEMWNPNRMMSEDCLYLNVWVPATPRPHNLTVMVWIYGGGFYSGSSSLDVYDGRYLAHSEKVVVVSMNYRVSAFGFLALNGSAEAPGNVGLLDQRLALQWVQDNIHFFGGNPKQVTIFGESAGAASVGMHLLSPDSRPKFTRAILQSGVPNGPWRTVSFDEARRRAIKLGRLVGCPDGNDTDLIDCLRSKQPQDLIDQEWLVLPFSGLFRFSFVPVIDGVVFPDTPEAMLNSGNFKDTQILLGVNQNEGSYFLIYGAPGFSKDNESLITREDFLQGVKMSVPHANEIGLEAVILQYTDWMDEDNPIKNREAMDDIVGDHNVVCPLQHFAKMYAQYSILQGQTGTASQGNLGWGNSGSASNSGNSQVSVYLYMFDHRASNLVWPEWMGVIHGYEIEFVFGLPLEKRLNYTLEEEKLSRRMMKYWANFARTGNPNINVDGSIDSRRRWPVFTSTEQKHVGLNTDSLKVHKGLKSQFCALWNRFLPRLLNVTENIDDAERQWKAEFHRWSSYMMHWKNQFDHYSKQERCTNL

Row | SMILES | IC50 (acetylcholinesterase) [nM] | Inhibition rate of KCl-induced calcium ion influx (L-type Ca2+ channel [1]; 10 μM compound) [%] | Inhibition rate of KCl-induced calcium ion influx (L-type Ca2+ channel [1]; 50 μM compound) [%] | further results
1 | COC(=O)C1=C(C)Nc2nc3c(c(N)c2C1c1cccc([N+](=O)[O-])c1)CCC(C)=C3 (centres unmarked) [Compound S18, 5-amino-2,8-dimethyl-4-(3-nitrophenyl)-1,4,6,7-tetrahydrobenzo[b][1,8]naphthyridine-3-carboxylic acid methyl ester] | 504 |  |  | 
2 | CCOC(=O)C1=C(C)Nc2nc3c(c(N)c2C1c1ccccc1OC)CC(C)CC3 (centres unmarked) [Compound S28, 5-amino-4-(2-methoxylphenyl)-2,7-dimethyl-1,4,6,7,8,9-hexahydrobenzo[b][1,8]naph thyridine-3-carboxylic acid ethyl ester] | 136 |  |  | 
3 | CC1=C(C(=O)OC(C)C)C(c2cncnc2)c2c(nc3c(c2N)CC(C)(C)CC3)N1 (centres unmarked) [Compound S26, 5-amino-2,7,7-trimethyl-4-(pyrimidin-5-yl)-1,4,6,7,8,9-hexahydrobenzo[b][1,8]napht hyridine-3-carboxylic acid isopropyl ester] |  | 30.18 | 41.41 | 
4 | CCOC(=O)C1=C(C)Nc2nc3c(c(N)c2C1c1cccc([N+](=O)[O-])c1)CC(F)(F)CC3 (centres unmarked) [Compound S19, 5-amino-7,7-difluoro-2-methyl-4-(3-nitrophenyl)-1,4,6,7,8,9-hexahydrobenzo[b][1,8]naphthyridine-3-carboxylic acid ethyl ester] | 333 |  |  | Inhibition rate of L-type Ca2+ channel current (L-type Ca2+ channel [2]; 100 nmol/L compound): 4.12%; Inhibition rate of L-type Ca2+ channel current (L-type Ca2+ channel [2]; 1000 nmol/L compound): 26.29%
5 | CCOC(=O)C1=C(C)Nc2nc3c(c(N)c2C1c1ccc(C(F)(F)F)cc1)CC(C)CC3 (centres unmarked) [Compound S2, 5-amino-2,7-dimethyl-4-(4-trifluoromethylphenyl)-1,4,6,7,8,9-hexahydrobenzo[b][1,8]naphthyridine-3-carboxylic acid ethyl ester] | 558 | 38.79 | 94.01 | 
6 | C=CCOC(=O)C1=C(C)Nc2nc3c(c(N)c2C1c1cccc(F)c1)CC(C)(C)CC3 (centres unmarked) [Compound S35, 5-amino-4-(3-fluorophenyl)-2,7,7-trimethyl-1,4,6,7,8,9-hexahydrobenzo[b][1,8]napht hyridine-3-carboxylic acid allyl ester] | 1790 |  |  | 
7 | CC1=C(C(=O)OC(C)C)C(c2cccc(Cl)c2)c2c(nc3c(c2N)CC(C)(C)CC3)N1 (centres unmarked) [Compound S33, 5-amino-2,7,7-trimethyl-4-(3-chlorphenyl)-1,4,6,7,8,9-hexahydrobenzo[b][1,8]naphth yridine-3-carboxylic acid isopropyl ester] | 1840 |  |  | 
8 | CCOC(=O)C1=C(C)Nc2nc3c(c(N)c2C1c1cccc(F)c1)CC(C)(C)CC3 (centres unmarked) [Compound S34, 5-amino-2,7,7-trimethyl-4-(3-fluorophenyl)-1,4,6,7,8,9-hexahydrobenzo[b][1,8]napht hyridine-3-carboxylic acid ethyl ester] | 1780 | 39.53 | 88.96 | 
9 | CCOC(=O)C1=C(C)Nc2nc3c(c(N)c2C1c1cccc([N+](=O)[O-])c1)CC(C)(C)CC3 (centres unmarked) [Compound S31, 5-amino-2,7,7-trimethyl-4-(3-nitrophenyl)-1,4,6,7,8,9-hexahydrobenzo[b][1,8]naphth yridine-3-carboxylic acid ethyl ester] | 3030 | 19.10 | 93.34 | 
10 | CC1=C(C(=O)OC2CCC2)C(c2ccccc2F)c2c(nc3c(c2N)CC(C)(C)CC3)N1 (centres unmarked) [Compound S9, 5-amino-4-(2-fluorophenyl)-2,7,7-trimethyl-1,4,6,7,8,9-hexahydrobenzo[b][1,8]napht hyridine-3-carboxylic acid cyclobutyl ester] | 919 | 5.22 | 85.01 | 
11 | C#CCOC(=O)C1=C(C)Nc2nc3c(c(N)c2C1c1cccc(F)c1)CC(C)(C)CC3 (centres unmarked) [Compound S36, 5-amino-2,7,7-trimethyl-4-(3-fluorophenyl)-1,4,6,7,8,9-hexahydrobenzo[b][1,8]napht hyridine-3-carboxylic acid propargyl ester] | 1930 |  |  | 
12 | CC1=C(C(=O)OCC2CC2)C(c2ccccc2Cl)c2c(nc3c(c2N)CC(C)(C)CC3)N1 (centres unmarked) [Compound S11, 5-amino-4-(2-chlorphenyl)-2,7,7-trimethyl-1,4,6,7,8,9-hexahydrobenzo[b][1,8]naphth yridine-3-carboxylic acid cyclopropylmethyl ester] |  | 54.69 | 75.06 | 
13 | CCOC(=O)C1=C(C)Nc2nc3c(c(N)c2C1c1cccc([N+](=O)[O-])c1)CC(Cl)(Cl)CC3 (centres unmarked) [Compound S20, 5-amino-7,7-dichloro-2-methyl-4-(3-nitrophenyl)-1,4,6,7,8,9-hexahydrobenzo[b][1,8]naphthyridine-3-carboxylic acid ethyl ester] |  | 46.88 | 99.27 | Relative neuron activity (average) ([3]; 0.01 μM): 103.9%; Relative neuron activity (average) ([3]; 0.1 μM): 98.5%; Relative neuron activity (average) ([3]; 1 μM): 47.5%
14 | C=CCOC(=O)C1=C(C)Nc2nc3c(c(N)c2C1c1cccc([N+](=O)[O-])c1)CC(C)(C)CC3 (centres unmarked) [Compound S5, 5-amino-4-(3-nitrophenyl)-2,7,7-trimallyl1,4,6,7,8,9-hexahydrobenzo[b][1,8]naphthyr idine-3-carboxylic acid allyl ester] | 770 | 14.40 | 62.43 | 
15 | COC(=O)C1=C(C)NC(C)=C(C(=O)OC)C1c1ccccc1[N+](=O)[O-] [Nifedipine, reference compound] |  |  |  | Inhibition rate of L-type Ca2+ channel current (L-type Ca2+ channel [2]; 100 nmol/L compound): 22.48%; Inhibition rate of L-type Ca2+ channel current (L-type Ca2+ channel [2]; 1000 nmol/L compound): 36.15%
16 | COC(=O)C1=C(C)Nc2nc3c(c(N)c2C1c1ccccc1)CC(C)(C)CC3 (centres unmarked) [Compound S7, 5-amino-4-phenyl-2,7,7-trimethyl-1,4,6,7,8,9-hexahydrobenzo[b][1,8]naphthyridine-3-carboxylic acid methyl ester] | 1380 | 1.01 | 72.98 | 
17 | C#CCOC(=O)C1=C(C)Nc2nc3c(c(N)c2C1c1cccc([N+](=O)[O-])c1)CC(C)(C)CC3 (centres unmarked) [Compound S37, 5-amino-4-(3-nitrophenyl)-2,7,7-trimethyl-1,4,6,7,8,9-hexahydrobenzo[b][1,8]naphth yridine-3-carboxylic acid propargyl ester] | 1860 |  |  | 
18 | CCOC(=O)C1=C(C)Nc2nc3c(c(N)c2C1c1cccc(C(F)(F)F)c1)CC(C)(C)CC3 (centres unmarked) [Compound S4, 5-amino-4-(3-trifluoromethylphenyl)-2,7,7-trimethyl-1,4,6,7,8,9-hexahydrobenzo[b][1,8]naphthyridine-3-carboxylic acid ethyl ester] | 1050 | 64.82 | 85.17 | 
19 | COC(=O)C1=C(C)Nc2nc3c(c(N)c2C1c1ccccc1)CN(C)CC3 (centres unmarked) [Compound S12, 5-amino-2,7-dimethyl-4-phenyl-1,4,6,7,8,9-hexahydropyrido[2,3-b][1,6]naphthyridine-3-carboxylic acid methyl ester] |  | 34.59 | 52.61 | 
20 | CCC1=C(C(=O)OC)C(c2cccc([N+](=O)[O-])c2)c2c(nc3c(c2N)CC(C)(C)CC3)N1 (centres unmarked) [Compound S25, 5-amino-7,7-dimethyl-4-(3-nitrophenyl)-2-ethyl-1,4,6,7,8,9-hexahydrobenzo[b][1,8]n aphthyridine-3-carboxylic acid methyl ester] | 842 | 1.02 | 63.52 | 
21 | COCCOC(=O)C1=C(C)Nc2nc3c(c(N)c2C1c1ccccc1Cl)CC(C)(C)CC3 (centres unmarked) [Compound S10, 5-amino-4-(2-chlorphenyl)-2,7,7-trimethyl-1,4,6,7,8,9-hexahydrobenzo[b][1,8]naphth yridine-3-carboxylic acid methoxylethyl ester] | 971 | 49.97 | 83.29 | Relative neuron activity (average) ([3]; 0.01 μM): 120.7%; Relative neuron activity (average) ([3]; 0.1 μM): 96.3%; Relative neuron activity (average) ([3]; 1 μM): 70.3%
22 | COC(=O)C1=C(C)Nc2nc3c(c(N)c2C1c1cccc([N+](=O)[O-])c1)CC(C)(C)CC3 (centres unmarked) [Compound S30, 5-amino-2,7,7-trimethyl-4-(3-nitrophenyl)-1,4,6,7,8,9-hexahydrobenzo[b][1,8]naphth yridine-3-carboxylic acid methyl ester] | 5960 | 29.44 | 80.73 | 
23 | CC1=C(C(=O)OCCN(C)C)C(c2ccccc2)c2c(nc3c(c2N)CC(F)(F)CC3)N1 (centres unmarked) [Compound S29, 5-amino-7,7-difluoro-2-methyl-4-phenyl-1,4,6,7,8,9-hexahydrobenzo[b][1,8]naphthyr idine-3-carboxylic acid-2-(dimethylamino) ethyl ester] | 45 | 17.93 | 57.19 | Inhibition rate of L-type Ca2+ channel current (L-type Ca2+ channel [2]; 100 nmol/L compound): 11.64%; Inhibition rate of L-type Ca2+ channel current (L-type Ca2+ channel [2]; 1000 nmol/L compound): 23.76%
24 | CCOC(=O)C1=C(C)N(C)c2nc3c(c(N)c2C1c1ccccc1Cl)CC(C)(C)CC3 (centres unmarked) [Compound S38, 5-amino-4-(2-chlorphenyl)-1,2,7,7-tetramethyl-1,4,6,7,8,9-hexahydrobenzo[b][1, 8]na phthyridine-3-carboxylic acid ethyl ester] |  | 17.97 | 51.19 | 
